Results on one compound are retold here after article PMC9650016 (Brain, Behavior, & Immunity - Health, 2022).

This assay has as its target T1, PPM1A (protein phosphatase magnesium-dependent 1A; PP2Cα) (Homo sapiens, UniProt P35813).
T1 sequence (P35813 2-382): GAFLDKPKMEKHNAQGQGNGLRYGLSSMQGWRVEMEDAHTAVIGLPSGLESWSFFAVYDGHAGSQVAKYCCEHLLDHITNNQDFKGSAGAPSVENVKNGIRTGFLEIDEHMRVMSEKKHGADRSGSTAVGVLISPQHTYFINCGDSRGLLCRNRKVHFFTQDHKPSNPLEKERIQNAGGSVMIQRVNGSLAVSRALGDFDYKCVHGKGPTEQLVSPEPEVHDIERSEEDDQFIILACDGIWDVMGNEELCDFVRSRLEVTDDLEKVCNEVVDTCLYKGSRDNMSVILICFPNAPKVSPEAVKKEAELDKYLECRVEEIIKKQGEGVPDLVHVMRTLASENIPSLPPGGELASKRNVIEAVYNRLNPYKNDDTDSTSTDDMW
Description: microscale thermophoresis. The assay is classed as binding.

The structures appear in SMILES notation.

Take `CCCCCCCCCCCCCCCCOP(=O)([O-])OCC[N+](C)(C)C` [MF, Miltefosine]: the Kd amounted to 2700 nM.
